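Cultured in 96-well plates, cells were exposed to test compound for 48 hours across five concentrations. GI50 is the concentration that inhibits growth by half.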 Active and inactive are the calls of the source. No stated cut-off is given here; in the data, active = GI50 up to about 1.1 µM and inactive = higher.
What was measured:
Assay in all cases: NCI tumour cell line growth inhibition, 48 h
786-0 = tested on: 786-0
A498 = tested on: A498
A549 = tested on: A549
ACHN = tested on: ACHN
CAKI-1 = tested on: CAKI-1
CCRF-CEM = tested on: CCRF-CEM
DMS-273 = tested on: DMS-273
EKVX = tested on: EKVX
HCC 2998 = tested on: HCC 2998
HCT-116 = tested on: HCT-116
HCT-15 = tested on: HCT-15
HL-60 = tested on: HL-60
HOP-62 = tested on: HOP-62
HOP-92 = tested on: HOP-92
HT-29 = tested on: HT-29
IGROV-1 = tested on: IGROV-1
K562 = tested on: K562
KM12 = tested on: KM12
LOX IMVI = tested on: LOX IMVI
LXFL 529 = tested on: LXFL 529
M14 = tested on: M14
MOLT-4 = tested on: MOLT-4
NCI-H226 = tested on: NCI-H226
NCI-H23 = tested on: NCI-H23
NCI-H460 = tested on: NCI-H460
NCI-H522 = tested on: NCI-H522
OVCAR-3 = tested on: OVCAR-3
OVCAR-5 = tested on: OVCAR-5
OVCAR-8 = tested on: OVCAR-8
RXF 393 = tested on: RXF 393
SF-268 = tested on: SF-268
SF-295 = tested on: SF-295
SF-539 = tested on: SF-539
SK-MEL-28 = tested on: SK-MEL-28
SK-MEL-2 = tested on: SK-MEL-2
SK-MEL-5 = tested on: SK-MEL-5
SK-OV-3 = tested on: SK-OV-3
SN12C = tested on: SN12C
SNB-19 = tested on: SNB-19
SNB-78 = tested on: SNB-78
SR = tested on: SR
SW-620 = tested on: SW-620
TK-10 = tested on: TK-10
U-251 = tested on: U-251
UACC-257 = tested on: UACC-257
UACC-62 = tested on: UACC-62
UO-31 = tested on: UO-31
COLO 205 = tested on: COLO 205
DLD-1 = tested on: DLD-1
DMS-114 = tested on: DMS-114
KM-20L2 = tested on: KM-20L2
M19-MEL = tested on: M19-MEL
Malme-3M = tested on: Malme-3M
OVCAR-4 = tested on: OVCAR-4
SNB-75 = tested on: SNB-75
RPMI-8226 = tested on: RPMI-8226
BT-549 = tested on: BT-549
DU-145 = tested on: DU-145
Hs-578T = tested on: Hs-578T
MCF7 = tested on: MCF7
MDA-MB-231 = tested on: MDA-MB-231
MDA-MB-435 = tested on: MDA-MB-435
MDA-N = tested on: MDA-N
NCI/ADR-RES = tested on: NCI/ADR-RES
PC-3 = tested on: PC-3
T47D = tested on: T47D

C/N=C(/NC)N(C)c1nc(=[N+](C)C)ss1.[O-][Cl+3]([O-])([O-])[O-]
GI50 (786-0): > 100 µM (inactive)
GI50 (A498): 39.4 µM (inactive)
GI50 (A549): > 100 µM (inactive)
GI50 (ACHN): > 100 µM (inactive)
GI50 (CAKI-1): 16.3 µM (inactive)
GI50 (CCRF-CEM): 61.9 µM (inactive)
GI50 (DMS-273): 36.2 µM (inactive)
GI50 (EKVX): > 100 µM (inactive)
GI50 (HCC 2998): > 100 µM (inactive)
GI50 (HCT-116): 62.1 µM (inactive)
GI50 (HCT-15): 92.7 µM
GI50 (HL-60): 46 µM (inactive)
GI50 (HOP-62): > 100 µM (inactive)
GI50 (HOP-92): 75 µM (inactive)
GI50 (HT-29): > 100 µM (inactive)
GI50 (IGROV-1): > 100 µM (inactive)
GI50 (K562): 31.2 µM (inactive)
GI50 (KM12): > 100 µM (inactive)
GI50 (LOX IMVI): 78.9 µM (inactive)
GI50 (LXFL 529): > 100 µM (inactive)
GI50 (M14): > 100 µM (inactive)
GI50 (MOLT-4): 39.3 µM (inactive)
GI50 (NCI-H226): 59.3 µM (inactive)
GI50 (NCI-H23): 74.1 µM (inactive)
GI50 (NCI-H460): > 100 µM (inactive)
GI50 (NCI-H522): 56.4 µM (inactive)
GI50 (OVCAR-3): > 100 µM (inactive)
GI50 (OVCAR-5): > 100 µM (inactive)
GI50 (OVCAR-8): > 100 µM (inactive)
GI50 (RXF 393): > 100 µM (inactive)
GI50 (SF-268): > 100 µM (inactive)
GI50 (SF-295): > 100 µM (inactive)
GI50 (SF-539): > 100 µM (inactive)
GI50 (SK-MEL-28): > 100 µM (inactive)
GI50 (SK-MEL-2): > 100 µM (inactive)
GI50 (SK-MEL-5): > 100 µM (inactive)
GI50 (SK-OV-3): > 100 µM (inactive)
GI50 (SN12C): > 100 µM (inactive)
GI50 (SNB-19): > 100 µM (inactive)
GI50 (SNB-78): 82.8 µM (inactive)
GI50 (SR): 55.5 µM (inactive)
GI50 (SW-620): > 100 µM (inactive)
GI50 (TK-10): > 100 µM (inactive)
GI50 (U-251): > 100 µM (inactive)
GI50 (UACC-257): > 100 µM (inactive)
GI50 (UACC-62): > 100 µM (inactive)
GI50 (UO-31): > 100 µM (inactive)

O=C(Cc1nc2ccc([N+](=O)[O-])cc2nc1O)C(=O)Nc1ccccc1[N+](=O)[O-]
GI50 (786-0): > 100 µM (inactive)
GI50 (A498): > 100 µM (inactive)
GI50 (A549): > 100 µM (inactive)
GI50 (ACHN): > 100 µM (inactive)
GI50 (CAKI-1): > 100 µM (inactive)
GI50 (CCRF-CEM): > 100 µM (inactive)
GI50 (COLO 205): > 100 µM (inactive)
GI50 (DLD-1): > 100 µM (inactive)
GI50 (DMS-114): 39.5 µM (inactive)
GI50 (DMS-273): > 100 µM (inactive)
GI50 (EKVX): > 100 µM (inactive)
GI50 (HCC 2998): > 100 µM (inactive)
GI50 (HCT-116): 95.7 µM (inactive)
GI50 (HCT-15): 44.1 µM
GI50 (HL-60): > 100 µM (inactive)
GI50 (HOP-92): > 100 µM (inactive)
GI50 (HT-29): > 100 µM (inactive)
GI50 (IGROV-1): > 100 µM (inactive)
GI50 (K562): > 100 µM (inactive)
GI50 (KM-20L2): 87.3 µM (inactive)
GI50 (KM12): 86.3 µM (inactive)
GI50 (LOX IMVI): 60.7 µM (inactive)
GI50 (LXFL 529): > 100 µM (inactive)
GI50 (M14): > 100 µM (inactive)
GI50 (M19-MEL): > 100 µM (inactive)
GI50 (MOLT-4): > 100 µM (inactive)
GI50 (Malme-3M): > 100 µM (inactive)
GI50 (NCI-H226): > 100 µM (inactive)
GI50 (NCI-H23): > 100 µM (inactive)
GI50 (NCI-H460): > 100 µM (inactive)
GI50 (NCI-H522): 20.3 µM (inactive)
GI50 (OVCAR-3): > 100 µM (inactive)
GI50 (OVCAR-4): > 100 µM (inactive)
GI50 (OVCAR-5): > 100 µM (inactive)
GI50 (RXF 393): > 100 µM (inactive)
GI50 (SF-268): > 100 µM (inactive)
GI50 (SF-295): > 100 µM (inactive)
GI50 (SF-539): > 100 µM (inactive)
GI50 (SK-MEL-28): > 100 µM (inactive)
GI50 (SK-MEL-2): > 100 µM (inactive)
GI50 (SK-MEL-5): > 100 µM (inactive)
GI50 (SK-OV-3): > 100 µM (inactive)
GI50 (SNB-19): > 100 µM (inactive)
GI50 (SNB-75): > 100 µM (inactive)
GI50 (SW-620): > 100 µM (inactive)
GI50 (TK-10): > 100 µM (inactive)
GI50 (UACC-257): > 100 µM (inactive)
GI50 (UACC-62): > 100 µM (inactive)
GI50 (UO-31): > 100 µM (inactive)

CCN(CC)CCNc1ccc(CO)c2sc3ccccc3c(=O)c12 [HYCANTHONE]
GI50 (A498): 8.22 µM (inactive)
GI50 (A549): 6.85 µM (inactive)
GI50 (CAKI-1): 5.92 µM (inactive)
GI50 (DMS-114): 11.5 µM (inactive)
GI50 (EKVX): 13.7 µM (inactive)
GI50 (HCT-116): 4.8 µM (inactive)
GI50 (KM-20L2): 5.37 µM (inactive)
GI50 (LXFL 529): 12.7 µM (inactive)
GI50 (M19-MEL): 13 µM (inactive)
GI50 (MOLT-4): 2.79 µM (inactive)
GI50 (NCI-H226): 13.9 µM (inactive)
GI50 (NCI-H23): > 10 µM (inactive)
GI50 (NCI-H460): 4.04 µM (inactive)
GI50 (NCI-H522): 4.04 µM (inactive)
GI50 (OVCAR-4): 5.37 µM (inactive)
GI50 (OVCAR-5): 12.5 µM (inactive)
GI50 (OVCAR-8): 6.37 µM (inactive)
GI50 (RPMI-8226): 10.8 µM (inactive)
GI50 (SF-268): 8.89 µM (inactive)
GI50 (SF-295): 7.14 µM (inactive)
GI50 (SF-539): 11.2 µM (inactive)
GI50 (SK-MEL-28): 16.8 µM (inactive)
GI50 (SNB-19): 9.51 µM (inactive)
GI50 (SNB-78): 12.7 µM (inactive)
GI50 (SR): 3.18 µM (inactive)
GI50 (SW-620): 5.48 µM (inactive)
GI50 (U-251): 10.5 µM (inactive)
GI50 (UACC-257): 15.8 µM (inactive)
GI50 (UACC-62): 19.5 µM (inactive)
GI50 (UO-31): 6.58 µM (inactive)

Cc1cc(S(=O)(=O)Nc2nc(Nc3ccc(Cl)cc3)n[nH]2)c(S)cc1Cl
GI50 (786-0): > 100 µM (inactive)
GI50 (A498): > 100 µM (inactive)
GI50 (A549): > 100 µM (inactive)
GI50 (ACHN): 37.9 µM (inactive)
GI50 (BT-549): > 100 µM (inactive)
GI50 (CAKI-1): 36 µM (inactive)
GI50 (CCRF-CEM): > 100 µM (inactive)
GI50 (COLO 205): 79.3 µM (inactive)
GI50 (DU-145): > 100 µM (inactive)
GI50 (EKVX): > 100 µM (inactive)
GI50 (HCC 2998): > 100 µM (inactive)
GI50 (HCT-116): > 100 µM (inactive)
GI50 (HCT-15): 4.53 µM
GI50 (HL-60): > 100 µM (inactive)
GI50 (HOP-62): 52.5 µM (inactive)
GI50 (HOP-92): > 100 µM (inactive)
GI50 (HT-29): 81.1 µM (inactive)
GI50 (Hs-578T): 86.5 µM (inactive)
GI50 (IGROV-1): 70.5 µM (inactive)
GI50 (K562): > 100 µM (inactive)
GI50 (KM12): 31.6 µM (inactive)
GI50 (LOX IMVI): 75.7 µM (inactive)
GI50 (M14): 59.6 µM (inactive)
GI50 (MCF7): > 100 µM (inactive)
GI50 (MDA-MB-231): > 100 µM (inactive)
GI50 (MDA-MB-435): > 100 µM (inactive)
GI50 (MDA-N): 55.2 µM (inactive)
GI50 (MOLT-4): > 100 µM (inactive)
GI50 (Malme-3M): > 100 µM (inactive)
GI50 (NCI-H226): > 100 µM (inactive)
GI50 (NCI-H23): 82.8 µM (inactive)
GI50 (NCI-H460): 86.9 µM (inactive)
GI50 (NCI-H522): 70.5 µM (inactive)
GI50 (NCI/ADR-RES): > 100 µM (inactive)
GI50 (OVCAR-3): > 100 µM (inactive)
GI50 (OVCAR-4): > 100 µM (inactive)
GI50 (OVCAR-5): > 100 µM (inactive)
GI50 (OVCAR-8): > 100 µM (inactive)
GI50 (PC-3): > 100 µM (inactive)
GI50 (RPMI-8226): > 100 µM (inactive)
GI50 (RXF 393): > 100 µM (inactive)
GI50 (SF-268): 75.5 µM (inactive)
GI50 (SF-295): 91.2 µM (inactive)
GI50 (SF-539): > 100 µM (inactive)
GI50 (SK-MEL-28): > 100 µM (inactive)
GI50 (SK-MEL-2): > 100 µM (inactive)
GI50 (SK-MEL-5): > 100 µM (inactive)
GI50 (SK-OV-3): > 100 µM (inactive)
GI50 (SN12C): > 100 µM (inactive)
GI50 (SNB-19): 80.9 µM (inactive)
GI50 (SNB-75): > 100 µM (inactive)
GI50 (SR): > 100 µM (inactive)
GI50 (SW-620): > 100 µM (inactive)
GI50 (T47D): > 100 µM (inactive)
GI50 (TK-10): > 100 µM (inactive)
GI50 (U-251): 27.9 µM (inactive)
GI50 (UACC-257): > 100 µM (inactive)
GI50 (UACC-62): 18.9 µM (inactive)
GI50 (UO-31): 79.1 µM (inactive)

From ChEMBL document CHEMBL1201862, “PubChem BioAssay data set” (2004)
